Values quoted from earlier work in PMC12032770 (Journal of Experimental & Clinical Cancer Research : CR, 2025).

System: αvβ3 and αvβ5 integrin receptors
Conditions: at low doses
Source text: The αvβ3 and αvβ5 integrin receptors are strongly overexpressed on proangiogenic endothelial cells, including those that form tumor-associated blood vessels in GBM, and inhibitors targeting these integrins, such as the cyclic peptide cilengitide (CIL), act as anti-angiogenic agents.

cilengitide
effect on tumor vasculature: vascular normalization
